Results reported in patent US20230285321A1, “COMPOSITIONS AND METHODS USING A COMBINATION OF AUTOPHAGY INDUCER AND HIGH PROTEIN FOR INDUCTION OF AUTOPHAGY” (SOCIETE DES PRODUITS NESTLE S.A., priority 2018, published 2023).

System: LC3-II protein (muscle autophagy) in skeletal muscle (quadriceps)
Experiment: LC3-II western blot (normalized to GAPDH) in quadriceps of mice fed defined diets, with or without autophagy inducer in drinking water
Assay type: in vivo, C57b16/J mice
Details: 4 weeks ad libitum, 3 mM in drinking water
Description: 10-15 week-old C57b16/J mice were fed during ad libitum for 4 weeks with one of: a standard diet, a diet rich in proteins and poor in carbohydrates (high protein isocaloric), or a diet poor in proteins and rich in carbohydrates (low protein isocaloric). Each group was treated or not with 3 mM of autophagy inducer (e.g., spermidine) in the drinking water. Standard diet was composed of 16% fats (Soybean oil), 20% proteins (casein) and 64% carbohydrates (40% cornstarch, 14% dextrinized cornstarch, 10% sucrose). Low protein diet was composed of 16% fats (Soybean oil), 5% proteins (casein) and 79% carbohydrates (62% cornstarch, 10% dextrinized cornstarch, 7% sucrose). […]
Total protein lysates were extracted from 30-50 mg of tissues homogenized in 20 ml/g of RIPA buffer (150 mM sodium chloride, 50 mM Tris pH: 8, 1% Triton X-100, 0.5% deoxycolate, 0.1% SDS, protease inhibitors cocktail) with a tissue dissociator (gentleMACS Miltenyi Biotec). Protein concentration was determined by BCA assay, and samples were prepared adding 4X LDS sample buffer (Invitrogen). […] Membranes were incubated with LC3 (Novus Biologicals 2220) and GAPDH (Cell Signaling 2118) antibodies and detected with ECL substrates (Pierce). Protein quantification was performed by densitometric analysis of images using ImageJ software. […]

NCCCCNCCCN [spermidine]
muscle autophagy (LC3-II protein amount normalized to GAPDH) (high-protein isocaloric diet (60% proteins), ***p<0.001): synergistically induces muscle autophagy | muscle autophagy (LC3-II protein amount normalized to GAPDH) (low protein isocaloric diet (5% proteins)): inactive
